The subject of data set [1] is CH1/PA-1 (ovarian teratocarcinoma) cells. In words: MTT antiproliferative assay, CH1/PA-1. The data set is classed as cell-based, human. Conditions: exposure time 96 h, means ± standard deviations. On the procedure:
CH1/PA-1 (ovarian teratocarcinoma) cells were a generous gift from Lloyd R. Kelland (CRC Centre for Cancer Therapeutics, Institute of Cancer Research, Sutton, UK). A549 (non-small cell lung cancer), SW480, and HCT116 (both colon cancer) cells were kindly provided by the Institute of Cancer Research, Department of Medicine I, Medical University of Vienna, Austria. All cell lines were grown as monolayer cultures in Eagle’s MEM supplemented with L-glutamine (4 mM), sodium pyruvate (1 mM) and 1% (v/v) non-essential amino acid solution (all from Sigma-Aldrich) and 10% (v/v) heat-inactivated fetal calf serum (FCS, BioWest) in 75-cm^2 flasks (Starlab) at 37 °C under a humidified atmosphere containing 5% CO2 in air.
Antiproliferative activity of the compounds was determined with the colorimetric MTT assay (MTT = 3-(4,5-dimethyl-2-thiazolyl)-2,5-diphenyl-2H-tetrazolium bromide). CH1/PA-1, HCT116, SW480, and A549 cells with cell numbers of 1 × 10^3, 1.5 × 10^3, 2 × 10^3, and 3 × 10^3, respectively, were seeded in 100 μL per well into 96-well microculture plates (Starlab). After 24 h, test compounds were dissolved in DMSO (Fisher Scientific), serially diluted in complete MEM not to exceed a final DMSO content of 0.5% (v/v) and added in 100 μL per well. After 96 h, the drug-containing medium was replaced with 100 µL of RPMI 1640/MTT mixture, i. e., 6 parts of RPMI 1640 medium (Sigma-Aldrich; supplemented with 10% heat-inactivated fetal bovine serum and 4 mM L-glutamine), 1 part of MTT solution in phosphate-buffered saline (5 mg/mL; both from Sigma-Aldrich). After incubation for 4 h, the MTT-containing medium was replaced with 150 μL DMSO per well to dissolve the formazan product formed by viable cells. Optical densities at 550 nm (and at the reference wavelength of 690 nm) were measured with a microplate reader (ELx808, Bio-Tek). The IC50 values relative to untreated controls were interpolated from concentration–effect curves. At least three independent experiments were performed, each with triplicates per concentration level.

Data set [2] can be described thus: Lipophilicity by RP-UHPLC capacity factors (logkw, Φ0). Conditions: for Intercept logkw: RP-UHPLC, MeOH/0.1% formic acid in water, 25 °C, logk extrapolated to 100% water; for Φ0: percentage of methanol in the eluent at which logk is zero, Φ0 = −logkw/S; for Slope S: slope of logk against % organic eluent (MeOH). The data set is classed as physicochemical. The source says: It stands to reason that the higher the lipophilicity, the higher the cell accumulation; as far as passive diffusion is concerned, the higher efficiency with which normal cell function is compromised. As a consequence, lipophilicity is an important factor in drug development, described by the partition coefficient logP, which is routinely determined by the distribution of a compound in 1-octanol/water. However, 1-octanol, a solvent said to closely mimic the solubilizing behavior of cell membranes, forms emulsions with water. Additionally, the shake-flask method, seemingly easy, requires long sample preparation, has a low sample throughput, and lacks reproducibility, as it hinges on exact temperature control and consistent equilibration time allotted for every analyte. The time-consuming nature of this method may also lead to decomposition of the analyte. A concentration-, flow rate-, and column length-independent method is the determination of the capacity factor (k) via HPLC. The capacity factor is a measure for the equilibrium concentration between a polar phase (eluent) and an apolar phase (C18 column coating) and higher resemblance to the partition coefficient in […]. […] The percentage of methanol in the eluent at which logk is equal to zero is Φ0 [27, 28, 29].
The capacity factors k were determined with the use of an RP-UHPLC. The necessary chromatograms were recorded with a Dionex UltiMate 3000 RS UHPLC system (Thermo Fisher Scientific, Bedford, MA, USA) controlled by the Dionex Chromeleon 7.2 software. […] The capacity factors were then calculated as logk = log[(tR − t0)/t0], where tR and t0 are the retention times of the analyte and the dead time marker, respectively, at the respective MeOH:0.1% FA in water ratio. Every retention time was determined in isocratic mode for the different eluent ratios to obtain capacity factors in the linear range (−0.5 ≤ logk ≤ 1.5) in triplicate. A plot of logk against the % of the organic eluent yielded logkw (intercept) and S (slope). Φ0, the factor most closely resembling logP, was then determined as follows: Φ0 = −logkw/S [28].

Data set [3] deals with HCT116 (colon cancer) cells. In words: MTT antiproliferative assay, HCT116. Format: cell-based, human. As to conditions: exposure time 96 h, means ± standard deviations. On the procedure:
CH1/PA-1 (ovarian teratocarcinoma) cells were a generous gift from Lloyd R. Kelland (CRC Centre for Cancer Therapeutics, Institute of Cancer Research, Sutton, UK). A549 (non-small cell lung cancer), SW480, and HCT116 (both colon cancer) cells were kindly provided by the Institute of Cancer Research, Department of Medicine I, Medical University of Vienna, Austria. All cell lines were grown as monolayer cultures in Eagle’s MEM supplemented with L-glutamine (4 mM), sodium pyruvate (1 mM) and 1% (v/v) non-essential amino acid solution (all from Sigma-Aldrich) and 10% (v/v) heat-inactivated fetal calf serum (FCS, BioWest) in 75-cm^2 flasks (Starlab) at 37 °C under a humidified atmosphere containing 5% CO2 in air. […] After 24 h, test compounds were dissolved in DMSO (Fisher Scientific), serially diluted in complete MEM not to exceed a final DMSO content of 0.5% (v/v) and added in 100 μL per well. After 96 h, the drug-containing medium was replaced with 100 µL of RPMI 1640/MTT mixture, i. e., 6 parts of RPMI 1640 medium (Sigma-Aldrich; supplemented with 10% heat-inactivated fetal bovine serum and 4 mM L-glutamine), 1 part of MTT solution in phosphate-buffered saline (5 mg/mL; both from Sigma-Aldrich). After incubation for 4 h, the MTT-containing medium was replaced with 150 μL DMSO per well to dissolve the formazan product formed by viable cells. Optical densities at 550 nm (and at the reference wavelength of 690 nm) were measured with a microplate reader (ELx808, Bio-Tek). The IC50 values relative to untreated controls were interpolated from concentration–effect curves. At least three independent experiments were performed, each with triplicates per concentration level.
For orientation: Formazan colour is commonly taken as a measure of viable cells.

SMILES strings stand for the structures.

What is called IC50 is the concentration at which inhibition is half-maximal. A lower IC50 goes with higher potency. In data set [1], `Cc1ccc(C(C)C)cc1.F[P-](F)(F)(F)(F)F.O=C1C2=C(NCc3ccccc3)[O][Ru-]([n+]3ccc[nH]3)[O+]=C2c2ccccc21` [1c] yielded an IC50 of 11.5 ± 2 µM. Further, in data set [2], the Intercept logkw was 5.36, the Φ0 is reported as 63.72 and the “Slope S” value is listed as −0.0841. The molecule also had an IC50 in data set [3] of 22.4 ± 6 µM.
For `Cc1ccc(C(C)C)cc1.F[P-](F)(F)(F)(F)F.O=C1C2=C(NCc3ccccc3)[O][Ru-]([n+]3c[nH]c4ccccc43)[O+]=C2c2ccccc21` [1d], in that order: 10.6 ± 1.8 µM, 5.55, 65.87, −0.0843 and 18.8 ± 5.8 µM.
Regarding `Cc1ccc(C(C)C)cc1.Cn1ccnc1.F[P-](F)(F)(F)(F)F.O=C1C(=C(NCc2ccccc2)[O][Ru+])C(=O)c2ccccc21` [1b], the IC50 in data set [1] turned out to be 16.2 ± 2.6 µM. In data set [2], the Intercept logkw is recorded as 5.49, the Φ0 is given as 61.84 and the “Slope S” value is recorded as −0.0888. For the same molecule, the IC50 in data set [3] is 24.6 ± 8.5 µM.
`Cc1ccc(C(C)C)cc1.O=C1C2=C(NCc3ccccc3)[O][Ru-]([Cl])[O+]=C2c2ccccc21` [1a]: inhibition in data set [1] was half-maximal at 12.5 ± 4.4 µM (IC50). Also, in data set [2], the Intercept logkw is reported as 5.41, the Φ0 is on record as 63.19 and the “Slope S” value is −0.0855. Moreover, the IC50 in data set [3] came out at 24.8 ± 6.4 µM.
Taken in the same sequence, the figures for `Cc1ccc(C(C)C)cc1.F[P-](F)(F)(F)(F)F.O=C1C2=C(NCc3ccccc3)[O][Ru-]([n+]3cc4ccccc4[nH]3)[O+]=C2c2ccccc21` [1e] were 11 ± 3 µM, 5.94, 68.88, −0.0863 and 25.1 ± 7.1 µM.
For the molecule `Cc1ccc(C(C)C)cc1.F[P-](F)(F)(F)(F)F.O=C1C2=C(NCc3ccccc3)[O][Ru-]([NH+]3CCOCC3)[O+]=C2c2ccccc21` [1g], in data set [1], it took 12.2 ± 2.7 µM to reach half-maximal inhibition (IC50). Besides, in data set [2], the Intercept logkw is reported as 5.14, the Φ0 is given as 59.73 and the “Slope S” value is on record as “–0.0860”. In addition, in data set [3], the IC50 stood at 23.8 ± 7.6 µM.

(Values after paper PMC6651387, “Fine-Tuning the Activation Mode of an 1,3-Indandione-Based Ruthenium(II)-Cymene Half-Sandwich Complex by Variation of Its Leaving Group” (Molecules, 2019).)
